“And” between values parts separate entries of the source, which are not always exact repeats. Equal values may be shown once.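 Dose response: 5 concentrations. Exposure: 48 h. Format: 96-well plates. Endpoint: linear interpolation; highest concentration if not reached. The concentration for 50% growth inhibition is given as GI50. Definition used: TGI = concentration required for complete inhibition of growth.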
Tests used:
Assay in all cases: NCI-60 cell line screen, 48 h
OVCAR-4 ovarian = tested on: OVCAR-4 ovarian
ACHN renal = tested on: ACHN renal
CAKI-1 renal = tested on: CAKI-1 renal
NCI-H522 lung = tested on: NCI-H522 lung
A498 renal = tested on: A498 renal
RPMI-8226 leukemia = tested on: RPMI-8226 leukemia
HCT-15 colon = tested on: HCT-15 colon
EKVX NSCLC = tested on: EKVX NSCLC

Compound | GI50 (OVCAR-4 ovarian) [µM] | TGI (OVCAR-4 ovarian) [µM] | GI50 (ACHN renal) | TGI (ACHN renal) | GI50 (CAKI-1 renal) | TGI (CAKI-1 renal) | GI50 (NCI-H522 lung) [µM] | TGI (NCI-H522 lung) [µM] | GI50 (A498 renal) [µM] | TGI (A498 renal) [µM] | GI50 (RPMI-8226 leukemia) [µM] | TGI (RPMI-8226 leukemia) [µM] | GI50 (HCT-15 colon) | TGI (HCT-15 colon) | GI50 (EKVX NSCLC) [µM] | TGI (EKVX NSCLC) [µM]
COc1ccc(C2=Nn3c(nnc3-n3nc(C)cc3C)SC2)cc1 | 4.53 | > 100 | 0.0781 µM | > 100 µM | 0.0443 µM | > 43.4 µM | 0.031 | 0.529 | 0.0303 | 0.207 | 0.0605 | > 70.3 | 0.05 µM | > 100 µM |  | 
CCOC(=O)c1c(CN2CCN(C)CC2)nc2ccc(Cl)cc2c1-c1ccccc1 | 4.98 | 17.4 | 12.2 µM | 25.5 µM | 2.95 µM | 13.6 µM | 11.7 | 25.3 | 4.75 | 17.2 | 2.98 | 12.7 | 5.42 µM | 20.9 µM | 8.02 | 25
O=c1cccc(Cl)[nH]1 |  | > 100 |  | > 100 µM |  | > 100 µM |  | > 100 |  |  |  | > 100 |  | > 100 µM |  | > 100
COc1ccc2c(c1OC)O/C(=C\c1ncc([N+](=O)[O-])n1C)C2=O | 5.95 | > 75.2 | 0.342 µM | 1.46 µM | 0.376 µM | 2.46 µM | 1.36 | 3.48 | 3.32 | 10.4 | 3.07 | 16.4 | 0.487 µM | 3.61 µM |  | 
COc1cc(/C=C2\SC(N3CCCCC3)=NC2=O)ccc1OCCCCCCOc1ccc(/C=C2\SC(N3CCCCC3)=NC2=O)cc1OC |  |  | 15.1 µM | 34.2 µM | 22.7 µM | 84.7 µM | 3.18 | 22 | 12.8 | 46.2 |  |  | 15.2 µM | 53.1 µM | 12 | 76.6
N#Cc1cc(S(=O)(=O)Nc2nc3cc(Cl)ccc3o2)c(SCc2ccccc2)cc1Cl | 15.9 | 35.1 | 13.9 µM | 26.8 µM | 18.5 µM | 35.1 µM | 11.6 | 25 | 11.5 | 23.6 | 16.3 | 43 | 16.2 µM | 29.7 µM |  | 
Cc1cc(S(N)(=O)=O)c(S/C(=N\NS(=O)(=O)c2ccccc2)c2ccc(Cl)cc2)cc1Cl | > 100 | > 100 | > 100 µM | > 100 µM | > 100 µM | > 100 µM | 23.2 | 87.7 | 43 | > 100 |  |  | > 100 µM | > 100 µM | > 100 | > 100
COc1cc(N(C)C)c(OC)cc1C=C1C=CC=C1 |  |  |  | > 100 µM |  |  |  |  |  | > 100 |  |  |  |  |  | > 100
COc1ccc(-c2cc(/C=C/C(=O)c3ccc(N)cc3)[nH]n2)cc1 | 1.08 | 8.01 | 2.01 µM | 10.6 µM | 1.32 µM | 11.1 µM | 1.21 | 2.91 | 2.03 | 4.95 | 0.6 | 3.22 | 1 µM | 3.62 µM |  | 
COc1cc(-c2nn(-c3cccc(NC(=O)CCNc4ccc(N5CCOCC5)cc4)c3)cc2-c2ccncc2)ccc1Cl | 2.6 | 16.6 | 2.44 µM | 41.4 µM |  |  | 2.52 | 9.82 | 2.52 | 17.4 |  |  | 2.35 µM | > 100 µM | 3.07 | > 100
O=[N+]([O-])/C=C/c1ccc(Cl)cc1[N+](=O)[O-] | 4.36 | 15 | 1.95 µM | 3.79 µM | 2.16 µM | 9.09 µM | 1.5 | 3.3 | 14.5 | 27.8 |  |  | 2.2 µM | 5.72 µM | 13.1 | 35.1
CCOC(=O)[C@@H]1CSC(CC)=C(C(=O)O)N1 | > 100 | > 100 | > 100 µM | > 100 µM | > 100 µM | > 100 µM | > 100 | > 100 |  |  | > 100 | > 100 | > 100 µM | > 100 µM | > 100 | > 100
COc1cc(-c2nn(-c3cccc(NC(=O)CCN4CCN(c5ccccc5)CC4)c3)cc2-c2ccncc2)ccc1Cl | 3.03 | > 100 | 2.67 µM | > 100 µM |  |  | 2.43 | 9.69 | 3.29 | 17.9 |  |  | 2.62 µM | > 100 µM | 3.31 | > 100
CCCCCCCCCCCCCCCC[n+]1ccccc1 | 0.57 | 3.29 | 0.733 µM and 0.909 µM | 2.16 µM and 4.49 µM | 0.616 µM and 1.13 µM | 3.38 µM and 10.2 µM | 0.226 | 0.947 |  |  |  |  | 1.1 µM and 1.09 µM | 2.64 µM and 3.61 µM | 0.453 | 2.09
Cn1cnnc1[S-].[Au+].c1ccc([PH+](c2ccccc2)c2ccccc2)cc1 |  |  | 1.77 µM | 3.16 µM | 1.5 µM | 2.82 µM |  |  |  |  | 1.69 | 5.39 |  |  |  | 
CCOC(=O)c1c(NC(=O)c2ccc(Cl)cc2)sc2c(CN(C)C)c(O)ccc12 | 9.85 | 71.4 | 4.28 µM | 18.3 µM | 5.57 µM | 32.5 µM | 21 | > 100 | 6.09 | 19.9 |  |  | 2.16 µM | 5.76 µM | 10.1 | 31.8
Cc1ccc(C2CC(c3ccc(Nc4ccnc5cc(Cl)ccc45)cc3)=NN2C=O)cc1 (stereo not drawn) | 5.15 | > 100 | 3.27 µM | > 100 µM | > 100 µM | > 100 µM |  |  |  |  | 2.18 | > 100 | 2.78 µM | > 100 µM |  | 
C=C1CC[C@H]2C(C)=CC[C@H]3C(=C)C(=O)O[C@@H]3[C@@H]12 |  | > 100 |  | > 100 µM |  | > 100 µM |  | > 100 |  | > 100 |  |  |  | > 100 µM |  | > 100
COc1ccc(-c2c(N)noc2-c2cc(OC)c3c(c2)OCCO3)cc1 | 0.0847 | > 100 | 0.131 µM | > 100 µM | < 0.01 µM | 34.1 µM |  |  | < 0.01 | 0.303 | 0.0333 | 17.9 | < 0.01 µM | > 100 µM | 0.046 | > 100

From PubChem BioAssay (NCI)
